# No end group written: not given here.
# Columns and labels:
# E. coli (EC; ATCC 10536) = experiment: Antibacterial activity of synthetic NB_AMPs, microtiter plate method (MIC); assay type: cell-based, Escherichia coli
# Description: (§1) The cell-free supernatant of all E. coli DH5α strains containing cloned AMPs was collected after 24 h of culture and filtered through a 0.2 μm syringe (mixed cellulose esters (MCE), Merck, Darmstadt, Germany), and finally the cell-free supernatant was used for the evaluation of antibacterial activity. The cell-free supernatant from the E. coli DH5α, harboring only the plasmid vector without the NB_AMP genes, was confirmed as a negative control to have very little effect on antibacterial activities. The synthesized AMPs were suspended at a concentration of 10 mg/mL in distilled water and then used for antibacterial activity. The antibacterial activity against the Gram-negative bacterium, E. coli (EC; ATCC 10536), and the Gram-positive bacterium, Staphylococcus aureus (SA, ATCC 6538), was analyzed using the microtiter plate method and expressed as minimal inhibition concentration (MIC); the bacteria pre-cultured overnight (O/N) were cultured at 10^6 CFU/mL with the cell-free supernatant or the synthetic peptides, the reaction mixtures were added to the microtiter plate, and finally the reactivity was observed by O/N culture at 37 °C.
# [1] = test system: Staphylococcus aureus (SA, ATCC 6538); experiment: as above; assay type: cell-based
# Description: as §1
# [2] = synthetic peptides, microtiter plate, 10^6 CFU/mL, O/N culture at 37 °C, peptide stock 10 mg/mL in distilled water
Sequence,"MIC50 against E. coli (E. coli (EC; ATCC 10536); ATCC 10536, 24 h) [µg/mL]","MIC50 against S. aureus ([1]; ATCC 6538, 24 h) [µg/mL]",MIC50 against E. coli (E. coli (EC; ATCC 10536); [2]) [µg/mL],"MIC50 against S. aureus [1, 2] [µg/mL]"
FFGRFKKEK [NB_AMP10],2600,2110,,
GLQKYLSWVKNKRL [NB_AMP2],,,170,230
GQYNQGGYGSQGGDYGQGGYGQGSMGGGYG [NB_AMP6],,,9430,5830
KGAKKAGKAVKKTVKK [NB_AMP3],,,3430,2880
KKLAAKEKAAAAKEKEAAKKAAAKEKK [NB_AMP9],,,,5050
NTLSSIASLLKK [NB_AMP5],10210,3240,,
NYKLLSNSLNILL [NB_AMP8],,,,8360
WQEIKNSLEDLSDSI [NB_AMP4],,,4960,2950

# Source: paper PMC11941926, “Identification of Antimicrobial Peptides from Nibribacter radioresistens, a UV and Gamma Radiation Tolerant Bacterium” (Genes, 2025)
